This note sets out measurements from patent publication US11541049B2, “Tetrahydroisoquinoline derivatives, preparation process and use thereof” (SICHUAN KELUN-BIOTECH BIOPHARMACEUTICAL CO., LTD., priority 2018, dated 2023).

Converted amounts (≈) assume the structure as drawn.

A short description of data set [1]: Solubility test in pH 7.4 buffer. The format is physicochemical. The following applies: buffer (pH 7.4), aqueous buffer, thermodynamic from solid, 25° C. The method, then: The test compound was dissolved in a buffer (pH 7.4) at room temperature until the solution reached supersaturation. The solution was shaken at 25° C. by a constant temperature mixer for 4 hours, filtered through a 0.45 μm aqueous membrane filter, and the concentration was measured by UPLC. 1 mg of the test compound was accurately weighed, and dissolved in 10 mL volumetric flask as the reference substance. The reference substance was measured using the same process. The solubility of the test compound was calculated according to external standard process, and the results are shown in table 4.

Data set [2] concerns the target human coagulation factor XIa (Homo sapiens (Human), UniProt P03951). Put plainly: Inhibition of coagulation factor XIa (fluorogenic substrate, enzyme kinetic mode). The format is biochemical. The method, then:
The following procedures can be used to determine the in vitro inhibition of human coagulation factor XIa by the compound of the present disclosure, as indicated by IC50.
Enzyme: human coagulation factor XIa; manufacturer: Haemtech;
Substrate: Boc-Ile-Glu-Gly-Arg-AMC Acetate salt; manufacturer: Bachem;
Reaction buffer: 50 mM HEPES, 145 mM NaCl, 5 mM KCl, 0.1% BSA, pH 7.4;
The test compounds were dissolved in reaction buffer at different concentrations. 4 μl of coagulation factor XIa and 4 μl of the test compound were added to a 384 well plate, incubated at room temperature for 10 minutes after mixed thoroughly, and then 4 μl of substrate was added to initiate the reaction. For reading fluorescence signal value, enzyme kinetic mode was used. The wavelength of excitation light was selected to be 380 nm, and the wavelength of emission light was selected to be 460 nm. Read once per 30 seconds, and continuously read 20 cycles. Linear regression analysis of signal value-time was performed during the linear reaction period, and the slope was the reaction rate, and the enzyme activity inhibition rate was calculated according to the following formula. The half inhibitory concentration IC50 values of the compound were fitted using GraphPad Prism 5 software, and results are shown in Table 1. Inhibition rate %=(V0−Vi)/(V0−Vblank)×100.
In the formula: V0 is the reaction rate of the control well (using the same volume of reaction buffer without adding test compound), Vi is the reaction rate of test compound, Vblank is a blank well (using the same volume of reaction buffer without adding either enzyme or test compound).

The next data set has as its system rabbit plasma. Description: Effect on coagulation in vitro (aPTT and PT), rabbit plasma. The following applies: final concentration 10NM (so in the source), n = 3. The text has this:
aPTT reagent (purchased from Sysmex);
PT reagent (purchased from Sysmex);
The coagulation pathway includes the extrinsic coagulation pathway and the intrinsic coagulation pathway. The parameter associated with the extrinsic coagulation pathway is prothrombin time, expressed as PT; the parameter associated with the intrinsic coagulation pathway is activated partial thromboplatin time, expressed as aPTT.
After anticoagulation, blood of different species (rabbit, human) was subjected to centrifugation. The upper layer of plasma was collected and divided into several aliquots. The test compounds were added to make the final concentration of test compound to be 10NM. Incubation was conducted at 37° C. after mixed thoroughly. Then the samples were put into a coagulation analyzer (Sysmex CA1500, Sysmex, Japan) for the aPTT and PT assays. Blank plasma (without test compound) was used as a reference, and the ratio values of aPTT and PT of all samples and blank plasmas were analyzed, the results are shown in table 3.

Sequence of human coagulation factor XIa (P03951 388-625): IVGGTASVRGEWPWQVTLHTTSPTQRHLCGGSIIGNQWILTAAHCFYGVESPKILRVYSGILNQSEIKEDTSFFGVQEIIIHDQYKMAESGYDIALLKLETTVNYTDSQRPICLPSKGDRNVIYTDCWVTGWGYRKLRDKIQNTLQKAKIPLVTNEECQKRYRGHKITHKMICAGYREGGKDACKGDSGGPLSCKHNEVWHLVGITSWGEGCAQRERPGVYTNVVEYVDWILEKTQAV
Sequence of human coagulation factor XIa (P03951 19-387): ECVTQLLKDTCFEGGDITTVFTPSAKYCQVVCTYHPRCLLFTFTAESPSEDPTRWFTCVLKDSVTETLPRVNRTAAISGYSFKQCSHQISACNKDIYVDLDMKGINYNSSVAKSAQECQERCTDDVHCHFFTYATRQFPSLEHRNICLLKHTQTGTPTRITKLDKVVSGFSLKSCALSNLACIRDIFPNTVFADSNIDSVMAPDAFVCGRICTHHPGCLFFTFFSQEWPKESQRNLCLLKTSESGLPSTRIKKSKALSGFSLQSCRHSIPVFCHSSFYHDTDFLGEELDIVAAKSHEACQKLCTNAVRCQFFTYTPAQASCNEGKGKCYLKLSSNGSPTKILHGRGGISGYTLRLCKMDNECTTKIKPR

One may read the solubility as how much of the substance goes into solution per volume. One may read the IC50 as the concentration that inhibits the measured activity by half. In data set [1], `N[C@@H](CCCCNC(=O)CN1CC=C(c2cccc3c2CCN(C(=O)[C@H]2CC(c4cccc(Cl)c4F)=NO2)[C@@H]3C(=O)Nc2ccc(C(=O)O)cc2)CC1)C(=O)O` [Example 5, 4-((S)-5-(1-(2-(((S)-5-amino-5-carboxypentyl)amino)-2-oxoethyl)-1,2,3,6-tetrahydropyridin-4-yl)-2-((R)-3-(3-chloro-2-fluorophenyl)-4,5-dihydroisoxazole-5-carbonyl)-1,2,3,4-tetrahydroisoquinoline-1-carboxamido)benzoic acid] showed a solubility at 4 h of 10.8 mg/mL (≈ 13.7 mM). Also, it took 0.16 ± 0.02 nM to reach half-maximal inhibition in data set [2] (IC50). Moreover, in the data set with rabbit plasma, the “Ratio of PT to that of blank plasma” value stood at 1.00 and the “Ratio of aPTT to that of blank plasma” value is 1.84.
